Test results as given in US7786155B2, “Organic compounds” (Novartis AG, priority 2007, dated 2010).

Key:
rats = conditions: icv administration (Thorsell et al. Neurosci. Lett. 2002); cited from earlier work
[1] = biological target: T1, recombinant human NPY Y2 receptors (Homo sapiens, UniProt P49146); assay: Scintillation proximity [35S]GTPγS binding assay (inhibition of 0.5 nM NPY-stimulated [35S]GTPγS binding); type: biochemical; conditions: 10 μM compound, membranes from CHO-C4 cells expressing recombinant human NPY Y2 receptors, read-out: [%] inhibiton at 10 μM
T1 construct: expressed in transfected cells; host or cells: CHO-C4 cells (membrane preparation)
T1 sequence (P49146 1-381): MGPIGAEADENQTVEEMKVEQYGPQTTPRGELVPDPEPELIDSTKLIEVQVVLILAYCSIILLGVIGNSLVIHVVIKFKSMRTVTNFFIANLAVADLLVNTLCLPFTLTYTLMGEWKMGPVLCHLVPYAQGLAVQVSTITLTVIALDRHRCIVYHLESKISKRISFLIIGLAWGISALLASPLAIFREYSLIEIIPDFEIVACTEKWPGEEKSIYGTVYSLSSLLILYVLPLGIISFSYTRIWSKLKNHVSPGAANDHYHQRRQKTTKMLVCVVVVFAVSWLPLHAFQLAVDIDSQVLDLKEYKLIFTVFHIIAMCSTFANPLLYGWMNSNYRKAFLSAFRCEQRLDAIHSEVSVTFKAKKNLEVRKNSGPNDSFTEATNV
Description: Preparation of Membranes: CHO-C4 cells expressing recombinant human NPY Y2 receptors were used to prepare membranes for the GTPγS assay. Cells were grown to 80-95% confluency on 15-cm (225 cm^2) tissue culture plates. After aspiration of the culture medium, cells were washed twice with 18 ml ice-cold phosphate-buffered saline (PBS), scraped off and suspended in 3 ml ice-cold PBS in pre-cooled centrifuge tubes. The dishes were rinsed with 2 ml ice-old PBS per dish and the washings were combined with the PBS cell suspension from above. Cells pooled from 5-7 dishes were centrifuged for 5 min at 10,000 rpm (12,000 g) in a Sorvall RC5B centrifuge using an SS34 rotor at […]. The cell pellet was resuspended in 5 ml ice-cold buffer (20 mM HEPES, 10 mM EDTA; pH 7.4) by vortexing (2-5 sec), homogenized using a Polytron (step 4 for 20-30 sec), and ice-cold buffer added to 25 ml. The suspension was centrifuged again for 20 min at 18,000 rpm (39,000 g) at 4° C. and the pellet resuspended in 5 ml ice-cold buffer (20 mM HEPES, 0.1 mM EDTA; pH 7.4) by vortexing (2-5 sec), homogenized with a Polytron (step 4 for 10 sec), and ice-cold buffer added to 25 ml. The suspension was centrifuged a third time for 20 min at 18,000 rpm (39,000 g) at 4° C. The pellet was resuspend in 1 ml ice-cold buffer (20 mM Hepes, 0.1 mM EDTA; pH 7.4) by vortexing (5-8 sec). Two to five resuspended pellets were combined and homogenized using a Polytron (step 4 for 15-25 sec). A small aliquot (20-50 μl) was removed for protein determination by the Coomassie Plus Protein Assay Reagent (Pierce) using BSA as standard. The membrane suspension was aliquoted in precooled (on dry ice) Eppendorf tubes (0.25-1 ml/tube affording approximately 0.5-2 mg of membrane protein/tube). The pellets were frozen and stored at −80° C.
Scintillation proximity [^35S]GTPγS binding assay: Frozen membranes from CHO-C4 cells expressing recombinant human NPY Y2 receptors (2 mg for four 96-well plates) were thawed on ice. Thawed membranes were pipetted into 10 ml of assay buffer (20 mM HEPES, 10 mM MgCl2, 100 mM NaCl, pH 7.4) and homogenized briefly using a Polytron. The final assay mixture was prepared in 96-well microtiter plates (Isoplate Wallac, Perkin Elmer). The composition of the assay mixtures in a final volume of 250 μl per well was as follows: 20 mM HEPES, 10 mM MgCl2, 100 mM NaCl, pH 7.4, 30 μM GDP, 1 mg/ml BSA (added fresh), 5 μg membrane protein, 1.5 mg Wheatgerm agglutinin SPA beads (Amersham), 0.45 nM [^35S]GTPγS (Amersham, SJ1308, 1000 Ci/mmol, stabilized solution), and the test compounds (agonists and/or antagonists) at the appropriate concentrations. The samples were incubated at room temperature for 90 min by shaking, after which the SPA beads were sedimented by centrifugation in an Eppendorf 5804 centrifuge at 2700 rpm for 10 min at room temperature. After 60 min the plates were counted in a TopCount (Canberra). Basal [^35S]GTPγS binding was measured in the absence of agonist (NPY). Non-specific binding was measured in the presence of excess (10 μM) unlabelled GTPγS (Sigma). Nonspecific binding never exceeded 10% of basal binding and was thus not subtracted from the experimental data. Antagonists were tested for the inhibition of 0.5 nM NPY-stimulated [^35S]GTPγS binding. Antagonist inhibition curves were analyzed by non-linear regression using GraphPad Prism software (Version 4.0, GraphPad Software Inc., CA, USA).
Antagonistic activity of compounds of the present invention was examined by the Scintillation proximity [^35S]GTPγS binding assay as described above (inhibition of 0.5 nM NPY-stimulated [^35S]GTPγS binding). The table below represents percentages of inhibition at a concentration of 10 μM.

Compound	ethanol self-administration (rats)	inhibition at 10 µM [1] [%]
N=C(N)NCCC[C@H](NC(=O)CC1(CC(=O)N2CCN(C3c4ccccc4NC(=O)c4ccccc43)CC2)CCCC1)C(=O)NCCn1c(=O)n(-c2ccccc2)n(-c2ccccc2)c1=O (stereo partly shown) [BIIE0246]	dose dependently reduced ethanol self-administration	
CCCC1(c2ccc(F)cc2)N=C(C)N(CC(=O)c2ccc(NC(=O)Nc3c(C)noc3C)cc2)C1=O (racemic) [Compound 7, (+/−)-1-(3,5-Dimethyl-isoxazol-4-yl)-3-(4-{2-[4-(4-fluoro-phenyl)-2-methyl-5-oxo-4-propyl-4,5-dihydro-imidazol-1-yl]-acetyl}-phenyl)urea]		91
CCCC1(c2ccc(F)cc2)N=C(C)N(CC(=O)c2ccc(NC(=O)C3CCOC3)cc2)C1=O (stereo not shown) [Compound 16, Tetrahydro-furan-3-carboxylic acid (4-{2-[4-(4-fluoro-phenyl)-2-methyl-5-oxo-4-propyl-4,5-dihydro-imidazol-1-yl]-acetyl}-phenyl)-amide]		28
CC1=NC(c2ccccc2)(c2ccccc2)C(=O)N1CC(=O)c1ccc(NC(=O)c2ccccc2F)cc1 [Compound 21, 2-Fluoro-N-{4-[2-(2-methyl-5-oxo-4,4-diphenyl-4,5-dihydro-imidazol-1-yl)-acetyl]-phenyl}-benzamide]		61
